{"source": "patent US12653883B2", "about": "(priority 2018, dated 2026)", "key": {"[1]": {"system": "C57BL/6J mice", "settings": "mouse, in vivo"}, "[2]": {"system": "Balb/c mice", "settings": "mouse, in vivo"}}, "note": "Several values for one entry are separate records, joined by “and”; a condition that tells them apart may be missing. Identical values can stand only once."}
{"smiles": "C[C@@H]1CCN(C(=O)CC#N)C[C@@H]1N(C)c1ncnc2[nH]ccc12", "note": "[Tofacitinib]", "values": [{"measurement": "Increase in luciferase expression by pretreatment", "setting": "[1]", "value": "~60", "unit": "fold"}, {"measurement": "Mean antigen-specific T-cells, IFNg+ (% of CD8)", "setting": "[2]", "value": "13 % of CD8 and 12.9 % of CD8"}]}
